The results in this text go back to ChEMBL document CHEMBL1144152, “Oceanapiside, an antifungal bis-alpha,omega-amino alcohol glycoside from the marine sponge Oceanapia phillipensis” (1999).

In brackets after ≈: the same amount, converted by molar mass. Activity calls are given as the source filed them. No cut-off for these calls is given here.

For orientation: MIC means the lowest concentration that inhibits growth of the organism. A higher MIC goes with weaker potency.

The subject of one assay is Nakaseomyces glabratus. The assay can be described thus: Antifungal activity against fluconazole-resistant Candida glabrata by broth dilution method. The class given is functional.
Assay [1] has as its system Candida albicans. The assay can be described thus: Antifungal activity against Candida albicans ATCC 14503. The class given is functional, organism-based.
Assay [2] relates to Candida albicans. The assay can be described thus: Antifungal activity against fluconazole-resistant Candida albicans 96-489. The assay is classed as functional, organism-based.
Assay [3] relates to Candida albicans. The experiment in a line: Antifungal activity against fluconazole-resistant Candida albicans UCD-FR1. The class given is functional, organism-based.
The next assay has as its system Pichia kudriavzevii. The experiment in a line: Antifungal activity against Candida krusei. The class given is functional, organism-based.

Compound `C[C@@H]1[C@H](O)[C@@H](C)/C=C/C=C/C=C/C=C/C=C/C=C/C=C/[C@H](O[C@@H]2O[C@H](C)[C@@H](O)[C@H](N)[C@@H]2O)C[C@@H]2O[C@](O)(C[C@@H](O)C[C@@H](O)[C@H](O)CC[C@@H](O)C[C@@H](O)CC(=O)O[C@H]1C)C[C@H](O)[C@H]2C(=O)O` [AMPHOTERICIN B] returned an MIC in the assay on Nakaseomyces glabratus of 1 µg/mL (≈ 1.08 µM).
Same read-out and setting: then `C[C@@H](N)[C@H](O)CCCCCCCCCCCCCCC(=O)CCCCCCC[C@@H](O)[C@@H](N)CO`, with 3 µg/mL (≈ 6.16 µM).
For the compound `C[C@@H](N)[C@H](O)CCCCCCCCCCCCCCC(=O)CCCCCCC[C@@H](O[C@@H]1O[C@H](CO)[C@@H](O)[C@H](O)[C@H]1O)[C@@H](N)CO`, the result in the assay with Candida albicans [1], in the assay on Candida albicans [2], with Candida albicans [3] and with Pichia kudriavzevii was inactive. Also, in the assay on Nakaseomyces glabratus, the MIC worked out at 10 µg/mL (≈ 15.4 µM).
